Broadly, the IC50 is the concentration at which inhibition is half-maximal.

The target in one experiment is T1, CCR6 (Homo sapiens, UniProt P51684).
T1 construct: Human CD4+CCR6+CXCR3-T cells were isolated from leukopak from healthy donors; endogenous in cells
T1 sequence (P51684 1-374): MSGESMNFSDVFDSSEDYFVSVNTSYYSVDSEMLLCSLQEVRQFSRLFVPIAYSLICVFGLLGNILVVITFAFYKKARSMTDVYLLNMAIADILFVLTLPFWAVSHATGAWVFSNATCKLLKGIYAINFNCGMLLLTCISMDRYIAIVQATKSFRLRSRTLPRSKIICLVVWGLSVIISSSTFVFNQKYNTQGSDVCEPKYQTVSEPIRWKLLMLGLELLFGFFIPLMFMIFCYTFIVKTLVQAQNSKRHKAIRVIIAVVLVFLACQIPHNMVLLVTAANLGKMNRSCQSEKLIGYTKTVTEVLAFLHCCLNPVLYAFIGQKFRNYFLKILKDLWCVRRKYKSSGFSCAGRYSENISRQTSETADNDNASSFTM
Kind of experiment: CCR6+ T Cell Chemotaxis Assay. The format is cell-based. The conditions noted are these: for T Cell Chemotaxis Selectivity: Table 13, T cell chemotaxis compared to neutrophil chemotaxis, NS = not selective for T cell chemotaxis compared to neutrophil chemotaxis. An excerpt:
Human CD4+CCR6+CXCR3-T cells were isolated from leukopak from healthy donors using EasySep™ Human Th17 Cell Enrichment Kit. […] Day 4 post activation, Dynabeads were removed from the culture. The activated T cells were maintained at 1-2×10^6 cells/mL for 15 days by feeding fresh growth media when needed.
For IC50 determination, the top and bottom of the chemotaxis chamber contained the same concentration of compound. DMSO was kept constant at 0.1% (v/v) in all wells. The final concentration of CCL20 (Peprotech 300-29A) in the bottom chamber is 0.5 nM. The fully assembled chemotaxis plate was placed in a cell culture incubator at 37° C., 5% CO2 for 1 h. After incubation, the top filter was removed, followed by a quick freeze of the bottom chamber at −80° C. for 1 h. The migrated cells in the bottom chamber were stained with CyQUANT dye (Life Technologies, C7026) for cell number determination.
IC50 values for compounds of the present invention (Table 11) were determined by the non-linear regression analysis of dose response curves.

In another experiment the target is T2, CXCR2 (Homo sapiens, UniProt P25025).
T2 sequence (P25025 1-360): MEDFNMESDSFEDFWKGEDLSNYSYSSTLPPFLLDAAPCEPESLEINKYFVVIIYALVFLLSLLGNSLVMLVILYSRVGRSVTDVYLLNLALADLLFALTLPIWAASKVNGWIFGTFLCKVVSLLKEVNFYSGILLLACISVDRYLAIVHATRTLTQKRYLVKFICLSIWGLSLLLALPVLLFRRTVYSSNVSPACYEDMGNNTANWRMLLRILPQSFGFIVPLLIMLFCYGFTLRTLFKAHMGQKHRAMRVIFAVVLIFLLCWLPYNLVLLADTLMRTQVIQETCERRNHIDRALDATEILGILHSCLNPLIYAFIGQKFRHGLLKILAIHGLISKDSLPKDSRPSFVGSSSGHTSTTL
Kind of experiment: Human Neutrophil Chemotaxis Assay. The format is cell-based. On the set-up: Human neutrophils were purified from freshly drawn human whole blood; endogenous in cells; host or cells: primary human neutrophils from fresh whole blood. How it is done:
After 30 min, the labeled neutrophils were washed twice in chemotaxis buffer, resuspended as before and used immediately. For the assay, test compounds were tested in a dose-response format to determine IC50. Labeled neutrophils (50 μL) were pre-incubated with diluted test compound (50 μL) for 30 min in a 96-well plate (Greiner). Next, 100 μL of diluted compound was mixed with 100 μL of GROα (Peprotech #300-11, 2 nM) in the bottom portion of the chemotaxis chamber. The top portion (insert) of the chemotaxis system containing the FluoroBlok porous membrane was then assembled together. 50 μL of the pre-incubated neutrophils were added to the FluoroBlok insert (top portion) and chemotaxis measured by the neutrophils ability to migrate through the membrane towards the specific CXCR2 ligand, GROα.
IC50 values for compounds of the present invention (Table 12) were determined by the non-linear regression analysis of dose response curves.

The mark [1] stands for this setting: Table 11, human CD4+CCR6+CXCR3- T cells, CCL20 0.5 nM in bottom chamber, 1 h at 37° C., read-out: IC50.
Where [2] appears, read: Table 12, human neutrophils migrating towards the CXCR2 ligand GROα, read-out: IC50.

Where two headings read alike, the source gives them in different places.

Take `Cc1cn(C)nc1[C@H](Nc1c(Nc2ccnc(C(=O)N(C)C)c2O)c(=O)c1=O)C1(C)CC2(CC2)C1` (single isomer, unassigned) [Example 17]: the IC50 at CCR6 (setting [1]) stood at 5.9 nM; at CXCR2 (setting [2]) it was 3160 nM. For the same compound, the “T Cell Chemotaxis Selectivity” value on CCR6 worked out at 535.
In the case of `Cc1nc([C@H](Nc2c(Nc3ccnc(C(=O)N(C)C)c3O)c(=O)c2=O)C2(C)CCCC2)c(C)o1` (single isomer, unassigned) [Example 34], the IC50 at CCR6 (setting [1]) is 24 nM; at CXCR2 (setting [2]), 2510 nM. In addition, the “T Cell Chemotaxis Selectivity” value on CCR6 was 104. Besides, the “R = CH3, T Cell Chemotaxis Selectivity” value on CCR6 (Table 14, R = CH3) came out at 104.
Take `CCC1([C@@H](Nc2c(Nc3ccnc(C(=O)N(C)C)c3O)c(=O)c2=O)c2nn(C)cc2C)CCC1` (single isomer, unassigned) [Example 35]: the 50% inhibitory concentration (IC50) worked out at 30 nM on CCR6 (setting [1]) and 255 nM at CXCR2 (setting [2]). The “T Cell Chemotaxis Selectivity” value at CCR6 was 8.
On to `Cc1cn(C)nc1[C@H](Nc1c(Nc2ccnc(C(=O)N(C)C)c2O)c(=O)c1=O)[C@]1(C)CC(F)(F)CO1` (single isomer, unassigned) [Example 36], for which the values for the IC50 on CCR6 (setting [1]) and at CXCR2 (setting [2]) were 32.3 nM and 7130 nM, respectively. Further, the “T Cell Chemotaxis Selectivity” value at CCR6 is 220.
As to `[2H]C([2H])([2H])c1cn(C)nc1[C@H](Nc1c(Nc2ccnc(C(=O)N(C)C)c2O)c(=O)c1=O)C1(C)CCCC1` (single isomer, unassigned) [Example 39], the IC50 was 6.5 nM at CCR6 (setting [1]) and 502 nM at CXCR2 (setting [2]).
`Cc1cn(C)nc1[C@H](Nc1c(Nc2ccnc(C(=O)N(C)C)c2O)c(=O)c1=O)C1(C)CCCC1` [Example 1, (R)-4-((2-(((1,4-Dimethyl-1H-pyrazol-3-yl)(1-methylcyclopentyl)methyl)amino)-3,4-dioxocyclobut-1-en-1-yl)amino)-3-hydroxy-N,N-dimethylpicolinamide]: the IC50 amounted to 5.8 nM on CCR6 (setting [1]); 5.8 nM at CCR6 (Table 14, R = CH3, read-out: R = CH3, IC50 (nM) CCR6 T cell, CCL20 Chemotaxis); 524 nM on CXCR2 (setting [2]); 524 nM at CXCR2 (Table 14, R = CH3, read-out: R = CH3, IC50 (nM) CXCR2 Neutrophil, GROα Chemotaxis).
As for `Cc1cn(C)nc1[C@@H](Nc1c(Nc2ccnc(C(=O)N(C)C)c2O)c(=O)c1=O)C1(C)CCCC1` [Example 2, (S)-4-((2-(((1,4-Dimethyl-1H-pyrazol-3-yl)(1-methylcyclopentyl)methyl)amino)-3,4-dioxocyclobut-1-en-1-yl)amino)-3-hydroxy-N,N-dimethylpicolinamide], the half-maximal inhibitory concentration (IC50) on CCR6 (setting [1]) came to 186 nM; at CXCR2 (setting [2]), 7310 nM.
With `Cc1cn(C)nc1[C@H](Nc1c(Nc2ccnc(C(=O)N(C)C(C)C)c2O)c(=O)c1=O)C1(C)CCCC1` [Example 3, (R)-4-((2-(((1,4-Dimethyl-1H-pyrazol-3-yl)(1-methylcyclopentyl)methyl)amino)-3,4-dioxocyclobut-1-en-1-yl)amino)-3-hydroxy-N-isopropyl-N-methylpicolinamide], the half-maximal inhibitory concentration (IC50) on CCR6 (setting [1]) is 2.3 nM; at CXCR2 (setting [2]), 1530 nM. For the same compound, the “T Cell Chemotaxis Selectivity” value at CCR6 is given as 665.
For the compound `CCN(C)C(=O)c1nccc(Nc2c(N[C@@H](c3nn(C)cc3C)C3(C)CCCC3)c(=O)c2=O)c1O` [Example 4, (R)-4-((2-(((1,4-Dimethyl-1H-pyrazol-3-yl)(1-methylcyclopentyl)methyl)amino)-3,4-dioxocyclobut-1-en-1-yl)amino)-N-ethyl-3-hydroxy-N-methylpicolinamide], the IC50 on CCR6 (setting [1]) is 6.3 nM; at CXCR2 (setting [2]) it was 886 nM. The “T Cell Chemotaxis Selectivity” value at CCR6 is recorded as 140.
Consider `CCN(C)C(=O)c1nccc(Nc2c(N[C@H](c3nn(C)cc3C)C3(C)CCCC3)c(=O)c2=O)c1O` [Example 5, (S)-4-((2-(((1,4-Dimethyl-1H-pyrazol-3-yl)(1-methylcyclopentyl)methyl)amino)-3,4-dioxocyclobut-1-en-1-yl)amino)-N-ethyl-3-hydroxy-N-methylpicolinamide], for which the concentration for half-maximal inhibition (IC50) on CCR6 (setting [1]) stood at 922 nM.
With `Cc1cn(C)nc1[C@H](Nc1c(Nc2ccnc(C(=O)N3CCOCC3)c2O)c(=O)c1=O)C1(C)CCCC1` [Example 6, (R)-3-(((1,4-dimethyl-1H-pyrazol-3-yl)(1-methylcyclopentyl)methyl)amino)-4-((3-hydroxy-2-(morpholine-4-carbonyl)pyridin-4-yl)amino)cyclobut-3-ene-1,2-dione], the half-maximal inhibitory concentration (IC50) at CCR6 (setting [1]) is 11.6 nM; at CXCR2 (setting [2]), 586 nM. Moreover, at CCR6, the “T Cell Chemotaxis Selectivity” value is reported as 51.
Turning to `Cc1cn(C)nc1[C@H](Nc1c(Nc2ccnc(C(=O)N3CCN(C)CC3)c2O)c(=O)c1=O)C1(C)CCCC1` [Example 7, (R)-3-(((1,4-Dimethyl-1H-pyrazol-3-yl)(1-methylcyclopentyl)methyl)amino)-4-((3-hydroxy-2-(4-methylpiperazine-1-carbonyl)pyridin-4-yl)amino)cyclobut-3-ene-1,2-dione], the IC50 is 29.8 nM on CCR6 (setting [1]) and 2160 nM on CXCR2 (setting [2]). The “T Cell Chemotaxis Selectivity” value at CCR6 amounted to 72.
The matching figures for `CN(C)C(=O)c1nccc(Nc2c(N[C@@H](c3nn(C)cc3Cl)C3(C)CCCC3)c(=O)c2=O)c1O` [Example 8, (R)-4-((2-(((4-Chloro-1-methyl-1H-pyrazol-3-yl)(1-methylcyclopentyl)methyl)amino)-3,4-dioxocyclobut-1-en-1-yl)amino)-3-hydroxy-N,N-dimethylpicolinamide]: 3 nM, 103 nM and 34.
The matching figures for `CN(C)C(=O)c1nccc(Nc2c(N[C@H](c3nn(C)cc3Cl)C3(C)CCCC3)c(=O)c2=O)c1O` [Example 9, (S)-4-((2-(((4-Chloro-1-methyl-1H-pyrazol-3-yl)(1-methylcyclopentyl)methyl)amino)-3,4-dioxocyclobut-1-en-1-yl)amino)-3-hydroxy-N,N-dimethylpicolinamide]: 59.7 nM, 2750 nM and 46.
On the same counts, the results for `CC(C)N(C)C(=O)c1nccc(Nc2c(N[C@@H](c3nn(C)cc3Cl)C3(C)CCCC3)c(=O)c2=O)c1O` [Example 10, (R)-4-((2-(((4-Chloro-1-methyl-1H-pyrazol-3-yl)(1-methylcyclopentyl)methyl)amino)-3,4-dioxocyclobut-1-en-1-yl)amino)-3-hydroxy-N-isopropyl-N-methylpicolinamide] are 8.7 nM, 175 nM and 20.
In the case of `COc1cn(C)nc1[C@H](Nc1c(Nc2ccnc(C(=O)N(C)C(C)C)c2O)c(=O)c1=O)C1(C)CCCC1` [Example 11, (R)-3-Hydroxy-N-isopropyl-4-((2-(((4-methoxy-1-methyl-1H-pyrazol-3-yl)(1-methyl-cyclopentyl)methyl)amino)-3,4-dioxocyclobut-1-en-1-yl)amino)-N-methylpicolinamide], the concentration for half-maximal inhibition (IC50) is 1.9 nM on CCR6 (setting [1]) and 210 nM on CXCR2 (setting [2]). The “T Cell Chemotaxis Selectivity” value at CCR6 came out at 110.
On to `Cc1ccc([C@H](Nc2c(Nc3cccc(C(=O)N(C)C)c3O)c(=O)c2=O)C2(C)COC2)o1` [Example 50, reference compound], for which the IC50 at CXCR2 (Table 17, WO 2013/061005 comparator compounds, read-out: IC50 (nM) CXCR2 Neutrophil, GROα Chemotaxis) was 121 nM.
As to `CC[C@@H](Nc1c(Nc2ccnc(C(=O)N(C)C)c2O)c(=O)c1=O)c1cc(C(C)C)co1` [Example 112, reference compound], the IC50 on CXCR2 (Table 15, WO 2010/131145 comparator compounds, read-out: IC50 (nM) CXCR2 Neutrophil, GROα Chemotaxis) was 23.2 nM.
